Laboratory results: patent US20080124366A1, “Methods and Compositions for Treating Tumors” (priority 2006, published 2008)
Entries after “also recorded” stand apart in the source; their conditions may differ.

B1: INF-gamma: interferon-gamma in which cancer stem cells were incubated (protein, UniProt P01579 24-161, looked up)
Interferon gamma: QDPYVKEAENLKKYFNAGHSDVADNGTLFLGILKNWKEESDRKIMQSQIVSFYFKLFKNFKDDQSIQKSVETIKEDMNVKFFNSNKKKRDDFEKLTNYSVTDLNVQRKAIHELIQVMAELSPAAKTGKRKRSQMLFRG

How the values were obtained:
GL261 mouse glioma model = test: Intratumoral CpG ODN administration in GL261 mouse glioma model; type: in vivo; settings: weakly immunogenic GL261 / GL261-Luc model
[1] = system: cervical lymph node T cells and DCs; test: Flow cytometry of draining cervical lymph nodes after s.c. vaccination; type: in vivo, C57BL/6 mice; settings: vs lysate or normal
Method: Flow cytometry. Normal B6 mice were vaccinated two times, one week apart with CpG/lysate, CpG, lysate, or were not vaccinated as the controls (n=4/group). Six days after the last vaccination, the left and right cervical lymph nodes of each mouse were harvested, counted for LN cell numbers, and analyzed by flow cytometry with various monoclonal antibodies (1 μg/10^6 cells) including FITC-anti-CD3, PE-anti-CD8, APC-anti-CD4, FITC-anti-CD1 1c, PE-anti-CCR7, and APC-anti-CD86 (eBioscience, San Diego, Calif.).
The ability of CpG ODN to activate and mature DCs to elicit T cell-mediated responses has been established. An experiment was conducted to characterize the effects of CpG/lysate vaccination on DCs and T cells in the draining lymph nodes. Normal B6 mice were vaccinated two times, one week apart, by subcutaneous (s.c.) injection with CpG ODN, tumor lysate, or CpG/lysate (n=4/group). Six days after the second vaccination, the draining cervical lymph nodes of each mouse were harvested, counted for total cell number, and analyzed by flow cytometry.

[2] = system: intracranial GL261-Luc glioma; test: s.c. vaccination of mice bearing intracranial GL261-Luc glioma, bioluminescent imaging and survival (Example 5); type: in vivo, C57BL/6 mice; settings: s.c. days 4, 11, 18
Method: Glioma model and in vivo imaging. Six to seven week old female C57BL/6 mice were purchased from Jackson Laboratory and maintained in a specific pathogen free (SPF) facility according to the guidelines of the University of Minnesota Animal Care and Use Committee (IACUC). For intracranial tumor inoculations, animals were deeply anesthetized with a ketamine/xylazine cocktail solution (53.7 mg/ml ketamine, 9.26 mg/ml xylazine) delivered at 1 ml/kg. 10,000 GL261-Luc cells in 1 μl of PBS were implanted stereotactically into the right striatum; coordinates were 2.2 mm lateral, and 0.5 mm posterior of bregma, and 3 mm ventral from the cortical surface of the brain. For imaging mice were deeply anesthetized by i.p. injection with avertin (225 mg/kg) and injected with 100 μl of luciferin (substrate for luciferase enzyme; 28.5 mg/ml, Xenogen®, Hopkinton, Mass.). Mice were imaged five minutes after luciferin injection using the Ivis 50 system (Xenogen®). […] Luciferase activity was analyzed using living image software (version 2.5; Xenogen®) according to the manufacturer's instructions. […]
Statistical analysis. […] Differences in animal survival between treatment groups were evaluated by log-rank statistical analysis with Sigmastat software (Systat Software, Inc. San Jose, Calif.); only P values <0.05 were considered significant.

[3] = system: Human brain tumor stem cells; test: Incubation of human brain tumor stem cells in INF-gamma; type: cell-based

| Molecule | efficacy of intratumoral administration (GL261 mouse glioma model) | number of activated (CD11c+CD86+/CCR7+) DCs in draining lymph nodes [1] | effect on tumor growth or survival [2] | immunogenicity of cancer stem cells after incubation [3] |
| --- | --- | --- | --- | --- |
| 5′-TCGTCGTTTTGTCGTTTTGTCGTT-3′ [CpG ODN] | not effective; also recorded: failed to cause sustained tumor regression | significant increase | no effect |  |
| B1 |  |  |  | restores their immunogenecity |
